Tested on: 317291-083-R-J1-PDC complex spheroid growth
Assay: Anticancer human tumor 317291-083-R-J1-PDC patient-derived soft tissue sarcoma cell line growth inhibition [Asc]
Settings: for viability, T/C: stronger effect = lower value
Experimental: Multicellular complex tumor spheroid response to apoptosis pathway targeting inhibitors Alrizomadlin, Pelcitoclax, and Dasminapant in combination with a variety of drugs and investigational agents in selected tumor cell lines
The MDM2 inhibitor alrizomadlin, the Bcl-2/Bcl-xL inhibitor pelcitoclax, and the IAPs inhibitor dasminapant were evaluated both individually and in combination with standard of care and investigational anticancer small molecules within a complex spheroid model of solid tumors. . Complex spheroids include a stromal component modeled by human endothelial cells (HUVEC) and fibroblasts modeled by human mesenchymal stem cells (MSCs). The concentration ranges selected for each drug and investigational agent were based upon clinically achievable concentrations if the clinical Cmax of the agent was known.
Compounds. The drugs and investigational agents: alrizomadlin (APG-115; NSC831270), pelcitoclax (APG-1252; NSC835773), dasminapant (APG-1387;NSC834197), TAK-243 (NSC785004), copanlisib (NSC809693), olaparib (NSC753686), talazoparib (NSC767125), cobimetinib (NSC 768068), eltanexor (KPT-8602, NSC 794443), abemaciclib (NSC 768073), sotorasib (NSC818433), adagrasib (NSC 831453), MRTX-1133 (NSC 836407), Iadademestat (ORY1001, NSC 806812), and RMC-4630 (NSC839698), were obtained from the NCI Developmental Therapeutics Program Chemical Repository. The FDA-approved anticancer drug set is available from the Developmental Therapeutics Program at https://dtp.cancer.gov/organization/dscb/obtaining/available plates.htm. […] The stock solutions were prepared in dimethyl sulfoxide (DMSO, Sigma-Aldrich, St. Louis, MO, cat. D2650) at 800-fold the tested concentration and stored at -70 degrees C prior to their use. All drugs and investigational agents were tested over a range starting from a high concentration at or near the clinical Cmax and decreasing in half-log increments. If the clinical Cmax for an agent had not been determined, the highest concentration tested was 10 microM.
The patient-derived cancer (PDC) cell lines include five colon adenocarcinomas: 186277-243-T-J2-PDC, 616215-338-R-J1-PDC, 439559-082-T-J2-PDC, 463943-066-T-J2-PDC, and 519858-162-T-J1-PDC; three pancreatic carcinomas: 323965-272-R-J2-PDC, 521955-158-R6-J3-PDC, and 521955-158-R2-J5-PDC; two uterine sarcomas: 327498-152-R-J2-PDC and 993429-296-R-J1-PDC; two rhabdomyosarcomas: 755483-174-R-J1-PDC and 772245-204-R-J1-PDC; two soft tissue sarcomas: 126254-015-R-J1-PDC and 494315-158-R-J1-PDC; two malignant fibrous histiocytomas: 317291-083-R-J1-PDC and 596521-263-R-J1-PDC; two breast carcinomas: 171881-019-R-J1-PDC and 885512-296-R-J2-PDC; and one ovarian carcinoma: 6556581-035-R-J-PDC were obtained from the NCI PDMR, (https://pdmr.cancer.gov). The established cell lines HSSY-2 synovial sarcoma (RRID:CVCL 8719), SYO-1 synovial sarcoma (RRID:CVCL_7146), MPNST malignant peripheral neural sheath tumor were obtained from the Sloan Kettering Institute. The following established cell lines were purchased from the American Type Culture Collection (ATCC, Manassas, VA), Sor the received from the NCI repository:, PANC-1 pancreatic carcinoma (CRL-1469, RRID:CVCL_0480), OVCAR-5 ovarian carcinoma (RRID:CVCL_1628), OVCAR-8 ovarian carcinoma (RRID:CVCL_1629), , MCF-7 breast carcinoma (CRL-12584, RRID:CVCL_0031), MDA-MB-231 breast carcinoma (CRL-12532, RRID:CVCL_0062), NCI-H1876 small cell lung carcinoma (CRL-5902, RRID:CVCL_1503), NCI-H510A small cell lung carcinoma (HTB-184, RRID:CVCL_1565), NCI-H1417 (CRL-5869, RRID:CVCL_1469), and NCI-H196 small cell lung carcinoma (CRL-5823, RRID:CVCL_1509). Dr. Peter Houghton (Greehey Children's Cancer Research Institute, University of Texas Health Science Center, San Antonio, TX) provided Rh-18 rhabdomyosarcoma (RRID:CVCL_1659). Pooled donor human umbilical vein endothelial cells (HUVEC, Lonza, cat. CC-2519) and human mesenchymal stem cells (hMSC, Lonza, cat. PT-2501) were purchased from Lonza (Walkersville, MD).
Cell Culture. […]

[1] = curve of first compound, second compound 0.00949 µM
[2] = curve of first compound, second compound 0.03 µM
[3] = curve of first compound, second compound 0.0949 µM
[4] = curve of first compound, second compound 0.3 µM
[5] = curve of first compound, second compound 0.949 µM
[6] = curve of first compound, second compound 3 µM
[7] = second compound 0.00949 µM, first compound 0.0316 µM
[8] = second compound 0.00949 µM, first compound 0.1 µM
[9] = second compound 0.03 µM, first compound 0.0316 µM
[10] = second compound 0.03 µM, first compound 0.1 µM
[11] = second compound 0.0949 µM, first compound 0.0316 µM
[12] = second compound 0.0949 µM, first compound 0.1 µM
[13] = second compound 0.3 µM, first compound 0.0316 µM
[14] = second compound 0.3 µM, first compound 0.1 µM
[15] = second compound 0.949 µM, first compound 0.0316 µM
[16] = second compound 0.949 µM, first compound 0.1 µM
[17] = second compound 3 µM, first compound 0.0316 µM
[18] = second compound 3 µM, first compound 0.1 µM
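Note: compound exposure lasted seven days after spheroids formed for three days.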
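Throughout, for viability, T/C: 100% = DMSO vehicle control wells.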

For `CCN1C(C(=O)NC23CCC(C(=O)O)(CC2)CC3)C(c2cccc(Cl)c2F)C2(C(=O)Nc3cc(Cl)ccc32)C12CCCCC2` (centres undefined), the viability, T/C (compound 0.0949 µM) was 96.6% [middle of 9 runs], the viability, T/C (compound 0.3 µM) was 95.2% [middle of 9 runs] and the viability, T/C (compound 3 µM) was 87.6% [middle of 9 runs]. The IC50 (compound alone, run of 11/07/2022) was over 3 µM and the IC50 (curve of compound) was over 3 µM.
Compound `Cn1ncnc1[C@H]1c2n[nH]c(=O)c3cc(F)cc(c23)N[C@@H]1c1ccc(F)cc1` + CCN1C(C(=O)NC23CCC(C(=O)O)(CC2)CC3)C(c2cccc(Cl)c2F)C2(C(=O)Nc3cc(Cl)ccc32)C12CCCCC2 has an IC50 [1] of over 0.1 µM, an IC50 [2] of over 0.1 µM and an IC50 [3] of over 0.1 µM. For the same compound, the IC50 [4] was over 0.1 µM, the IC50 [5] was over 0.1 µM and the IC50 [6] was over 0.1 µM. It also gave a viability, T/C (second compound 0.00949 µM, first compound 0.000316 µM) of 108%, a viability, T/C (second compound 0.00949 µM, first compound 0.001 µM) of 88.4% and a viability, T/C (second compound 0.00949 µM, first compound 0.00316 µM) of 102%. It also gave a viability, T/C (second compound 0.00949 µM, first compound 0.01 µM) of 100%, a viability, T/C [7] of 81.9% and a viability, T/C [8] of 66.9%. It also gave a viability, T/C (second compound 0.03 µM, first compound 0.000316 µM) of 99.6%, a viability, T/C (second compound 0.03 µM, first compound 0.001 µM) of 107% and a viability, T/C (second compound 0.03 µM, first compound 0.00316 µM) of 105%. It also gave a viability, T/C (second compound 0.03 µM, first compound 0.01 µM) of 81.3%, a viability, T/C [9] of 76.1% and a viability, T/C [10] of 87.3%. For the same compound, the viability, T/C (second compound 0.0949 µM, first compound 0.000316 µM) was 95.3%, the viability, T/C (second compound 0.0949 µM, first compound 0.001 µM) was 96% and the viability, T/C (second compound 0.0949 µM, first compound 0.00316 µM) was 103%. The viability, T/C (second compound 0.0949 µM, first compound 0.01 µM) was 86.3%, the viability, T/C [11] was 77.6% and the viability, T/C [12] was 70.4%. For the same compound, the viability, T/C (second compound 0.3 µM, first compound 0.000316 µM) was 106%, the viability, T/C (second compound 0.3 µM, first compound 0.001 µM) was 101% and the viability, T/C (second compound 0.3 µM, first compound 0.00316 µM) was 107%. The viability, T/C (second compound 0.3 µM, first compound 0.01 µM) was 89.5%, the viability, T/C [13] was 73.9% and the viability, T/C [14] was 64.6%. It also gave a viability, T/C (second compound 0.949 µM, first compound 0.000316 µM) of 95.4%, a viability, T/C (second compound 0.949 µM, first compound 0.001 µM) of 89.3% and a viability, T/C (second compound 0.949 µM, first compound 0.00316 µM) of 103%. For the same compound, the viability, T/C (second compound 0.949 µM, first compound 0.01 µM) was 93.6%, the viability, T/C [15] was 75.8% and the viability, T/C [16] was 72.1%. For the same compound, the viability, T/C (second compound 3 µM, first compound 0.000316 µM) was 82%, the viability, T/C (second compound 3 µM, first compound 0.001 µM) was 69% and the viability, T/C (second compound 3 µM, first compound 0.00316 µM) was 77.4%. For the same compound, the viability, T/C (second compound 3 µM, first compound 0.01 µM) was 79.7%, the viability, T/C [17] was 65.1% and the viability, T/C [18] was 62.7%.
In the case of `O=C(c1cc(Cc2n[nH]c(=O)c3ccccc23)ccc1F)N1CCN(C(=O)C2CC2)CC1` + CCN1C(C(=O)NC23CCC(C(=O)O)(CC2)CC3)C(c2cccc(Cl)c2F)C2(C(=O)Nc3cc(Cl)ccc32)C12CCCCC2, the IC50 [1] is reported as 9.4 µM, the IC50 [2] is reported as over 10 µM and the IC50 [3] is reported as over 10 µM. It also gave an IC50 [4] of 9.47 µM, an IC50 [5] of over 10 µM and an IC50 [6] of 7.68 µM. For the same compound, the viability, T/C [7] was 111%, the viability, T/C [8] was 108% and the viability, T/C (second compound 0.00949 µM, first compound 0.316 µM) was 108%. For the same compound, the viability, T/C (second compound 0.00949 µM, first compound 1 µM) was 86.9%, the viability, T/C (second compound 0.00949 µM, first compound 3.16 µM) was 92.7% and the viability, T/C (second compound 0.00949 µM, first compound 10 µM) was 46.2%. The viability, T/C [9] was 110%, the viability, T/C [10] was 101% and the viability, T/C (second compound 0.03 µM, first compound 0.316 µM) was 102%. The viability, T/C (second compound 0.03 µM, first compound 1 µM) was 104%, the viability, T/C (second compound 0.03 µM, first compound 3.16 µM) was 81.7% and the viability, T/C (second compound 0.03 µM, first compound 10 µM) was 54.6%. It also gave a viability, T/C [11] of 101%, a viability, T/C [12] of 105% and a viability, T/C (second compound 0.0949 µM, first compound 0.316 µM) of 92.1%. The viability, T/C (second compound 0.0949 µM, first compound 1 µM) was 104%, the viability, T/C (second compound 0.0949 µM, first compound 3.16 µM) was 77.2% and the viability, T/C (second compound 0.0949 µM, first compound 10 µM) was 53%. The viability, T/C [13] was 116%, the viability, T/C [14] was 114% and the viability, T/C (second compound 0.3 µM, first compound 0.316 µM) was 102%. It also gave a viability, T/C (second compound 0.3 µM, first compound 1 µM) of 91.2%, a viability, T/C (second compound 0.3 µM, first compound 3.16 µM) of 93.2% and a viability, T/C (second compound 0.3 µM, first compound 10 µM) of 46.2%. For the same compound, the viability, T/C [15] was 107%, the viability, T/C [16] was 109% and the viability, T/C (second compound 0.949 µM, first compound 0.316 µM) was 107%. The viability, T/C (second compound 0.949 µM, first compound 1 µM) was 92.4%, the viability, T/C (second compound 0.949 µM, first compound 3.16 µM) was 88.9% and the viability, T/C (second compound 0.949 µM, first compound 10 µM) was 51.9%. For the same compound, the viability, T/C [17] was 88.2%, the viability, T/C [18] was 85.3% and the viability, T/C (second compound 3 µM, first compound 0.316 µM) was 81.1%. The viability, T/C (second compound 3 µM, first compound 1 µM) was 83.3%, the viability, T/C (second compound 3 µM, first compound 3.16 µM) was 77.1% and the viability, T/C (second compound 3 µM, first compound 10 µM) was 41.8%.

From PubChem BioAssay AID1963427 (Molecular Pharmacology Branch, DTP, NCI, 2024)
